Results: patent US20070276025A1, “Indirubin-Type Compounds, Compositions, and Methods for Their Use” (priority 2003, published 2007)
Where two headings read alike, the source gives them in different places.

What was measured:
GSK-3α/β = GSK-3α/β kinase assay (GS-1 peptide, 15 μM ATP); format: biochemical, porcine
CDK1/cyclin B = CDK1/cyclin B kinase assay (histone H1, 15 μM ATP); format: biochemical, starfish (Marthasterias glacialis)
CDK5/p25 = CDK5/p25 (Homo sapiens, UniProt Q00535); experiment: CDK5/p25 kinase assay (histone H1, 15 μM ATP); format: biochemical, mammalian; details: read-out: IC50 CDK5/p25
[1] = tested on: GSK-3α (Tyr276) / GSK-3β (Tyr216); experiment: Tyrosine phosphorylation of GSK-3 in SH-SY5Y cells (Western blot); format: cell-based, human; details: 1 μM, 12 hr
From the text: GSK-3α and GSK-3β activity is enhanced by the phosphorylation of a specific tyrosine residue (Tyr276 and Tyr216, respectively) (Hughes et al. (1993) EMBO J. 12: 803-808; Dajani et al. (2003) EMBO J. 22: 494-501). The tyrosine kinase responsible for this phosphorylation in mammals is unknown, but there is some evidence that it indirectly depends on GSK-3 activity (Bhat et al. (2000) Proc. Natl. Acad. Sci. U.S.A. 97: 11074-11079; Shaw et al. (1997) FEBS Lett. 416: 307-311). […] SH-SY5Y cells were exposed to IO, MeIO, BIO and MeBIO for 12 hr and the phosphorylation of Tyr276 (GSK-3α) and Tyr216 (GSK-3β) was estimated by Western blotting with phospho-specific antibodies. […] This was accompanied by an increased level in total GSK-3β, total β-catenin, and dephospho-&catenin.

Xenopus laevis embryos = experiment: Maternal Wnt pathway activation in Xenopus laevis embryos (phenotype, RT-PCR of animal caps); format: in vivo; details: for embryo phenotype (anteriorization): BIO 5-50 μM, MeBIO 50 μM, LiCl 0.3 M, treated before stage 8, tadpole stage
Procedure: Xenopus laevis embryos obtained by in vitro fertilization were cultured in 0.1×MMR and staged (Nieuwkoop & Faber (1967) Normal table of Xenopus Laevis (North Holland Publishing Co, Amsterdam, The Netherlands)). […] For experiments with BIO, the reagent was added to the indicated final concentrations at the 4 cell stage and washed away at stage 8. Embryos were subsequently allowed to develop to tadpole stage. RNA injections were performed at 2-4 cell stage with the indicated amounts of in vitro transcribed RNA in a […] volume. Animal caps were dissected at blastula (stage 9) and cultured to neurula (stage 18) for RT-PCR analysis-. The RNA expression vectors were pCS2+DN Xtcf-3, encoding amino acids 88-553 of Xtcf-3 (Vonica et al. (2000) Dev. Biol. 217: 230-243), MTPA2 (Zeng et al. […] RT-PCR was performed as previously described (Chang et al. (1997) Development 124: 827-837), with the following oligonucleotides: for ODC sense [NT] and antisense 5° [NT] 3'; for nrp1 sense [NT] and antisense [NT]; for XAG1 sense [NT] and antisense 5° [NT] 3'; for en2 sense 5° [NT] 3' and antisense [NT]; for Xhoxb9 sense [NT] and antisense [NT]; for chordin sense 5° [NT] 3' and antisense [NT]. Phenotypes of embryos treated with BIO or LiCl were compared (FIG. 8B-G). […] The Wnt pathway can ectopically induce dorsal genes, like the direct Wnt target siamois ([…] et al. (1996) Development 122: 3055-3065), and the Spemann organizer marker and siamois target chordin (Kessler (1997) Proc. Natl. Acad. Sci. U.S.A. 94: 13017-22). […] Another outcome of ectopic Wnt pathway activation in Xenopus is the indirect induction of neural tissue in animal cap explants (Baker et al. (1999) Genes Dev. 13: 3149-3159). Explants from embryos treated with LiCl (FIG. 8I, lanes 4, 5), BIO (lanes 6, 7), or injected with RNA for the neuralizing factor noggin (lane 3), were compared by RT-PCR for various neural and anterior markers.

AhR [2] = experiment: AhR nuclear translocation in Hepa-1 and ARNT mutant cells (immunofluorescence); format: cell-based, mouse; details: 25 μM, 90 min, Hepa-1 wild-type and ARNT mutant cells
[3] = tested on: 5L (AhR +/+) hepatoma cells; experiment: Cell viability MTT assay, 5L cells; format: cell-based, mouse; details: range of concentrations, 24 and 48 hr
[4] = tested on: BP8 (AhR −/−) hepatoma cells; experiment: Cell viability MTT assay, BP8 cells; format: cell-based, mouse; details: range of concentrations, 24 and 48 hr
[5] = tested on: 5L (AhR +/+) hepatoma cells; experiment: FACS cell cycle analysis, 5L cells; format: cell-based, mouse; details: 10 μM indirubins or 100 nM TCDD, 24 hr
[6] = tested on: BP8 (AhR −/−) hepatoma cells; experiment: FACS cell cycle analysis, BP8 cells; format: cell-based, mouse; details: 10 μM indirubins or 100 nM TCDD, 24 hr
Procedure: Flow cytometry analysis (Coulter EPIX XL2, Beckman, Calif., USA) of cellular DNA content was performed on ethanol-fixed cell suspensions after ribonuclease A III treatment (Sigma) and propidium iodide (Sigma) staining, as previously described (French et al. (1985) Cytometry 6: 47-53). Percentages of cells in G0/G1, S and G2/M phases of cell cycle were then calculated on the basis of DNA distribution histograms provided by the software manufacturer.
Both 5L and BP8 cell lines were treated with 10 μM IO, MeIO, BIO, MeBIO or 100 nM TCDD for 24 hr.

[7] = tested on: p27^KIP1 in 5L (AhR +/+) cells; experiment: p27KIP1 expression by Western blotting, 5L cells; format: cell-based, mouse; details: 10 μM indirubins or 0.1 μM TCDD, 24 hr
AhR [8] = target: T1, AhR (Homo sapiens, UniProt P35869)
AhR [9] = target: T2, AhR (Mus musculus, UniProt P30561); details: read-out: EC50 AhR (hepatoma cell line); Table 4; EGFP at 24 hours
T2 sequence (P30561 1-848): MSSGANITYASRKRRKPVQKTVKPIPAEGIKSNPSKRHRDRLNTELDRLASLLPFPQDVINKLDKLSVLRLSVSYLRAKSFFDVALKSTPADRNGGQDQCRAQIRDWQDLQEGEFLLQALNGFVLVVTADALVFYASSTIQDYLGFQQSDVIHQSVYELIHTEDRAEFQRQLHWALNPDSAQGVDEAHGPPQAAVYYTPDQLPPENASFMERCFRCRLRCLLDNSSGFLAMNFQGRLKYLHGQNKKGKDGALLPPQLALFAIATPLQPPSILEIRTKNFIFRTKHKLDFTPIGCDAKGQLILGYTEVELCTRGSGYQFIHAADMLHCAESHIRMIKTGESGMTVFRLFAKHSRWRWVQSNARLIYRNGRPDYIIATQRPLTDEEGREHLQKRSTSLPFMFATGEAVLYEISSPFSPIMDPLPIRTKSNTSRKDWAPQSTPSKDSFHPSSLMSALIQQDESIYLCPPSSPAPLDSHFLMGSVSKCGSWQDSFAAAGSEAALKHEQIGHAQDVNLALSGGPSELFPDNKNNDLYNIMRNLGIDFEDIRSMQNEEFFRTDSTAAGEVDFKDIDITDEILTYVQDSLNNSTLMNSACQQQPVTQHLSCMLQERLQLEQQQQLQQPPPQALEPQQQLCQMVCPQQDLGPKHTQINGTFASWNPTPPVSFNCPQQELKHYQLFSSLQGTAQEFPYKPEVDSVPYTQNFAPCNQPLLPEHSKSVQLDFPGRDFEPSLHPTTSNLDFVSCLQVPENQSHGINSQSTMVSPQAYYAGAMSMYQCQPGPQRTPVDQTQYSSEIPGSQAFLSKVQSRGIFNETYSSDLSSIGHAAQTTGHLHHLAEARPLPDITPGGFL

GSK-3 [10] = experiment: β-catenin phosphorylation on GSK-3 specific sites in COS-1 cells (Western blot); details: 5 μM indirubins or 20 mM LiCl, 24 hrs
GSK-3 [11] = experiment: β-catenin stabilization in AhR- or ARNT-deficient Hepa cell lines (Western blot); details: 10 μM BIO, 50 μM MeBIO, 24 hrs
CDK5/p35 = CDK5/p35 (Homo sapiens, UniProt Q00535); parameters: made in house; details: Hoessel et al. (1999); cited from earlier work
AhR [12] = target: T1, AhR; experiment: Yeast AhR reporter assay (β-galactosidase)
[13] = Solubility (qualitative remark); details: relative to parent indirubins / 3′-oximes
[14] = Table 1, read-out: IC50 GSK-3 α/β
[15] = Table 5, read-out: IC50 GSK-3α/β
[16] = Table 4, read-out: IC50 CDK1/cycin B
[17] = Table 5, read-out: IC50 CDK1/cyclin B
[18] = Table 7, GSK-3, read-out: IC50exp

Sequence of CDK5/p25 (Q00535 whole entry, species assumed): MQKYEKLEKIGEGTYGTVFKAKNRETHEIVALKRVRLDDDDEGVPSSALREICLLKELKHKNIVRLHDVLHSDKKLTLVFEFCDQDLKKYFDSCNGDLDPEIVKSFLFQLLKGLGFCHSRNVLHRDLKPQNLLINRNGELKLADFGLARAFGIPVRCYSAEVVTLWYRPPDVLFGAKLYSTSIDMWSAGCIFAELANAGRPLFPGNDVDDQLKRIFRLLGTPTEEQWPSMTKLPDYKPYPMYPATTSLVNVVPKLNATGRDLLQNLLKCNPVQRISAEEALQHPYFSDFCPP
Sequence of CDK5/p25 (Q15078 99-307 partner limits assumed, species assumed): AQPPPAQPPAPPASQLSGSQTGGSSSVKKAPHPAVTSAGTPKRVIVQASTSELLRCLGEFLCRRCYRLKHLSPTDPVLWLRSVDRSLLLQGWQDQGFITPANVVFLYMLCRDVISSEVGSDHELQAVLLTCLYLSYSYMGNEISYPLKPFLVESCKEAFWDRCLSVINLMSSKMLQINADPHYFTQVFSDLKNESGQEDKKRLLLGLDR
T1 sequence (P35869 11-848): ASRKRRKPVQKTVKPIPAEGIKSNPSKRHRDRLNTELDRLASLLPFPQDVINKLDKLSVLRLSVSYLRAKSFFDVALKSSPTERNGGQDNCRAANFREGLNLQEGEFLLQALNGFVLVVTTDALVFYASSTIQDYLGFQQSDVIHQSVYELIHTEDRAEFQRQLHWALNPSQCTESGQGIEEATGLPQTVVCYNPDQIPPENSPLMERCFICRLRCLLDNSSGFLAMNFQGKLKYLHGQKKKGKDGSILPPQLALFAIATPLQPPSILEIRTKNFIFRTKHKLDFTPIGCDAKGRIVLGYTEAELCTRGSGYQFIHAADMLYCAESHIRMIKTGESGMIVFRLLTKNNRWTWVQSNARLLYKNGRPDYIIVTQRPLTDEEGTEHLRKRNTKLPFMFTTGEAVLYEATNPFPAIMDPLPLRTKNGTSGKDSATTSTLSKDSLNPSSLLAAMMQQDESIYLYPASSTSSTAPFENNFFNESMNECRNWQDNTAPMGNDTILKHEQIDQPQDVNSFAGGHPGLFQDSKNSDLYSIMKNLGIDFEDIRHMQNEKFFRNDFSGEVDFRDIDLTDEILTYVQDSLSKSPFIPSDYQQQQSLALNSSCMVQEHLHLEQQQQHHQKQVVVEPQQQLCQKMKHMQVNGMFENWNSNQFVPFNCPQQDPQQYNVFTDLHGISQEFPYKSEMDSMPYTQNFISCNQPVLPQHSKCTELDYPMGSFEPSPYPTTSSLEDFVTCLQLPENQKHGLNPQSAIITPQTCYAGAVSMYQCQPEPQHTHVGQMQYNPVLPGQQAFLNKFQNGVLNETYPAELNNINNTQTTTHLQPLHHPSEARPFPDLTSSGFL
T1 sequence (P27540 whole entry partner): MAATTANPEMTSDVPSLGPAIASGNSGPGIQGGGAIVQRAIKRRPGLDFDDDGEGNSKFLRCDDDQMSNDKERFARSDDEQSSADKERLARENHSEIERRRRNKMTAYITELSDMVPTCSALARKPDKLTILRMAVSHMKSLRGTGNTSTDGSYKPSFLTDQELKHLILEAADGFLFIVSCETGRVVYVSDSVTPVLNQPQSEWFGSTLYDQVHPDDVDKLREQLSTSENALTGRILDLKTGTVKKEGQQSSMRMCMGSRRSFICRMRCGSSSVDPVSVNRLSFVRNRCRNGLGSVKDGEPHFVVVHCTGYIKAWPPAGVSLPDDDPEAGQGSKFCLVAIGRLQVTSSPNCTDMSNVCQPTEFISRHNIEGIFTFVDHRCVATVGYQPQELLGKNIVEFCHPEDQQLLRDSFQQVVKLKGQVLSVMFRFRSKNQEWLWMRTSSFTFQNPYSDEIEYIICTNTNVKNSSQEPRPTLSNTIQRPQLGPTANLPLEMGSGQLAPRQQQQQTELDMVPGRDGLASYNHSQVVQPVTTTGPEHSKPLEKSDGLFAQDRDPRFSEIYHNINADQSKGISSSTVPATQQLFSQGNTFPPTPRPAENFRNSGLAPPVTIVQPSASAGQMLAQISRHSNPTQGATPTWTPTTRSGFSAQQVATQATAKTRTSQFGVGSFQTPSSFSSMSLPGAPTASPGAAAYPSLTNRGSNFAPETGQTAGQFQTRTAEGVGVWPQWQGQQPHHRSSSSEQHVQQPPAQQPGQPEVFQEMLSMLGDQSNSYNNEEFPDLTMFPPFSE
Sequence of CDK5/p35 (Q00535 whole entry, species assumed): as the sequence (Q00535 whole entry, species assumed) above
Sequence of CDK5/p35 (Q15078 whole entry partner, species assumed): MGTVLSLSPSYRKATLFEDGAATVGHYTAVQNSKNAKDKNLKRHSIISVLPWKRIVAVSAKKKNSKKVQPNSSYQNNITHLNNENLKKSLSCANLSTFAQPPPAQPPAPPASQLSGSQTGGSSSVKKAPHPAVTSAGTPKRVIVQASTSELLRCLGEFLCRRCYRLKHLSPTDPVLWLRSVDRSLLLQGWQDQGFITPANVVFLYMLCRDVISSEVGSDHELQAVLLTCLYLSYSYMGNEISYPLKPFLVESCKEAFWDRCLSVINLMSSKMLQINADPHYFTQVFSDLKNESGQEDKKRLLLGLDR

Compound	IC50 (GSK-3α/β; Table 4, read-out: IC50 GSK-3) [nM]	IC50 (CDK1/cyclin B; [16]) [µM]	nuclear translocation of AhR (AhR [2])	accumulation of 5L cells in G1 phase [5]	p27^KIP1 expression in 5L cells [7]	EC50 (AhR [8]) [nM]	EC50 (AhR [9]) [nM]	IC50 (GSK-3α/β; [18]) [nM]	also measured
CN1C(=O)C(=C2Nc3ccccc3C2=NO)c2ccc(Br)cc21 [13c, 6-Bromo-1-methylindirubin-3′-oxime]	44000	92	caused redistribution of AhR to the nucleus	very striking accumulation	very effective p27^KIP1 inducers	20	93		IC50 (GSK-3α/β; [14]): 44000 nM; IC50 (GSK-3α/β; [15]): > 100000 nM; IC50 (CDK1/cyclin B; [17]): 92 µM; IC50 (CDK5/p25; Table 1): > 100000 nM; IC50 (CDK5/p25; Table 5): > 100000 nM; level of tyrosine phosphorylation of both GSK-3 isoforms [1]: None of these changes were observed; embryo phenotype (anteriorization) (Xenopus laevis embryos): remains without effect; survival of 5L cells (MTT) [3]: apparently not affected; survival of BP8 cells (MTT) [4]: apparently not affected; accumulation of BP8 cells in G1 phase [6]: but not of AhR −/− cells (BP8); unphosphorylated β-catenin level (GSK-3 [10]): neither the kinase-inactive MeBIO nor IO, led to a major increase; β-catenin stabilization (GSK-3 [11]): inactive
O=C1Nc2ccc(S(=O)(=O)O)cc2/C1=C1/Nc2ccccc2C1=O [I5S, indirubin-5-sulphonate]									IC50 (CDK5/p35): 60 nM
O=C1Nc2ccc(I)cc2/C1=C1/Nc2ccccc2/C1=N\O [compound 19, 5-iodo-indirubin-3′-oxime, reference compound]		0.025	triggered ARNT-independent nuclear redistribution of AhR			50	5		
Clc1cc2c(cc1Cl)Oc1cc(Cl)c(Cl)cc1O2 [compound 25, 2,3,7,8-tetrachlorodibenzo-p-dioxin, reference compound]	> 15000	> 15		triggered an AhR-dependent arrest in G1	up-regulates the expression of both CYP1A1 and p27^KIP1 in the 5L		0.015		EC50 (AhR [12]): 25 nM
O=C1Nc2cc(Br)ccc2/C1=C1/Nc2ccccc2/C1=N\O [7a]			triggered ARNT-independent nuclear redistribution of AhR	modest (but detectable)	modest, but detectable increase				level of tyrosine phosphorylation of both GSK-3 isoforms [1]: dramatically reduced; embryo phenotype (anteriorization) (Xenopus laevis embryos): phenocopies the LiCl effect in a dose-dependent manner; induction of siamois and chordin in animal cap explants (RT-PCR) (Xenopus laevis embryos; Li+ 0.3 M, BIO 50 μM): shows induction of both genes; effect on anterior markers otx2 and xag1 in animal cap explants (RT-PCR) (Xenopus laevis embryos; even at the lowest concentration tested (5 μM)): strongest effect on anterior markers; survival of 5L cells (MTT) [3]: equally sensitive to IO and BIO; survival of BP8 cells (MTT) [4]: equally sensitive to IO and BIO; solubility (in words) [13]: increased solubility; unphosphorylated β-catenin level (GSK-3 [10]): major increase; β-catenin stabilization (GSK-3 [11]): triggered a robust β-catenin stabilization in both cell lines
O=C1Nc2ccc(Cl)cc2/C1=C1/Nc2ccccc2C1=O [compound 17, 5-chloro-indirubin, reference compound]	50	0.28				40	52	50	
O=C1Nc2cc(Br)ccc2C1=C1Nc2cc(Br)ccc2C1=NO [13b, 6,6′-dibromo-indirubin-3′-oxime]								120	IC50 (GSK-3α/β; [14]): 120 nM; IC50 (GSK-3α/β; [15]): 120 nM; IC50 (CDK1/cyclin B; Table 1, read-out: IC50 CDK1/cyclin B): 17 µM; IC50 (CDK1/cyclin B; [17]): 17 µM; IC50 (CDK5/p25; Table 1): 1300 nM; IC50 (CDK5/p25; Table 5): 1300 nM; solubility (in words) [13]: increased solubility
O=C1Nc2ccccc2/C1=C1/Nc2ccc(Br)cc2C1=O [compound 20, 5′-bromo-indirubin, reference compound]	350	0.51				≥ 100	51	350	
